Results from patent publication US7084122B2, “Use of glycosides of mono- and diacyglycerol as anti-inflammatory agents” (priority 2001, dated 2006).
Where two headings read alike, the source gives them in different places.

Assays:
Format in all cases: cell-based
[1] = system: polymorphonuclear leukocytes; test: Cell viability by trypan blue dye exclusion; details: for Percent viability: DMSO control 100
Protocol: (§1) Polymorphonuclear leukocytes (PMNS) were isolated from the peripheral blood of healthy individuals in citrated glass. The cells were separated by dextran density gradient and lymphoprep separation. The purity of PMNs was greater than 98% and the cell viability as determined by trypan blue dye exclusion was greater than 98%.
Table 6. […] Cell viability was determined by a trypan blue dye exclusion method. The cells were incubated with trypan blue. The dead cells will take up dye and appear blue under the microscope. The results are show as percent viable cells.

[2] = system: human peripheral blood polymorphonuclear leukocytes; test: Chemotaxis assay, modified Boyden chamber, towards zymosan activated serum (ZAS)
Protocol: as §1
Chemotaxis assay was performed using a modified Boyden chamber technique as described in Jensen, P. and Kharazmi, A., Computer-assisted image analysis assay of human neutrophil chemotaxis in vitro. J. Immunol. Methods, 144, 43–48. 1991. The purified PMNs were pre-incubated with different dilutions of the extracted galactolipid for 30 min at 37° C. Following preincubation, the chemotaxis of the cells towards the chemotactic factor zymosan activated serum (ZAS), which contains the biologically active chemoattractant C5a, were tested. The migrated cells were counted by a computer-assisted image analysis system.

[3] = system: human peripheral blood polymorphonuclear leukocytes; test: Chemiluminescence assay (oxidative burst response), stimulated with opsonized zymosan; details: for Chemiluminescence, Millivolts: DMSO control 664
Protocol: as §1
Chemiluminescence assay was used as a measure of oxygen radical generation by activated PMNs. The method was performed as described in Kharazmi, A., Høiby, N., Doring, G., and Valerius, N. H. Pseudomonas aeruginosa exoproteases inhibit human neutrophil chemiluminescence. Infect. Immun. 44, 587, 1984. PMNs were pre-incubated with different concentrations of the extracted galactolipid and then stimulated with opsonized zymosan. The oxidative burst response of the activated cells was measured by a luminometer (1250-LKB Wallace).

CC/C=C\C/C=C\C/C=C\CCCCCCCC(=O)OCC(CO[C@@H]1O[C@H](CO)[C@H](O)[C@H](O)[C@H]1O)OC(=O)CCCCCCC/C=C\C/C=C\C/C=C\CC (stereo partly drawn) [GOPO, 3-β-D-galactopyranosyloxy-2-(octadeca-9Z,12Z,15Z-trienoyloxy)propanyl octadeca-9Z,12Z,15Z-trienoate]
Percent viability ([1]; GOPO 50 μg/ml): 100% | Percent viability ([1]; GOPO 100 μg/ml): 99% | Toxicity to the cells (result in words) ([1]; at the tested concentrations): does not appear to be toxic | Cells migrated ([2]; GOPO 0.1 μg/ml, new batch (Table 4), DMSO control 42): 39 | Cells migrated ([2]; GOPO 1 μg/ml, new batch (Table 4), DMSO control 42): 15 | Cells migrated ([2]; GOPO 10 μg/ml, new batch (Table 4), DMSO control 42): 16 | Cells migrated ([2]; GOPO 50 μg/ml, first batch (Table 3), DMSO control 59): 5 | Cells migrated ([2]; GOPO 100 μg/ml, first batch (Table 3), DMSO control 59): 8 | Cells migrated ([2]; GOPO 100 μg/ml, new batch (Table 4), DMSO control 42): 12 | inhibition at 0.1 µg/mL ([2]; Homo sapiens, Leukocyte, GOPO 0.1 μg/ml, new batch (Table 4), read-out: Percent inhibition): 7% | inhibition at 1 µg/mL ([2]; Homo sapiens, Leukocyte, GOPO 1 μg/ml, new batch (Table 4), read-out: Percent inhibition): 64% | inhibition at 10 µg/mL ([2]; Homo sapiens, Leukocyte, GOPO 10 μg/ml, new batch (Table 4), read-out: Percent inhibition): 62% | inhibition at 50 µg/mL ([2]; Homo sapiens, Leukocyte, GOPO 50 μg/ml, first batch (Table 3), read-out: Percent inhibition): 92% | inhibition at 100 µg/mL ([2]; Homo sapiens, Leukocyte, GOPO 100 μg/ml, first batch (Table 3), read-out: Percent inhibition): 86% | inhibition at 100 µg/mL ([2]; Homo sapiens, Leukocyte, GOPO 100 μg/ml, new batch (Table 4), read-out: Percent inhibition): 71% | Migration of human peripheral blood leukocytes towards zymosan-activated serum (result in words) ([2]; at fairly low concentrations): inhibited | Chemiluminescence, Millivolts ([3]; GOPO 50 μg/ml): 520 Millivolts | Chemiluminescence, Millivolts ([3]; GOPO 100 μg/ml): 339 Millivolts | Chemiluminescence of human peripheral blood leukocytes (result in words) ([3]; at fairly low concentrations): inhibited
